Source: patent US10010507B1, “Pharmaceutical formulations of a bruton's tyrosine kinase inhibitor” (Pharmacyclics LLC, priority 2015, dated 2018)
Like-named read-outs stand apart in the source and are kept apart here.

Tested on: OCI-Ly10
Test: Inhibition of growth of OCI-Ly10 (ABC-DLBCL cells)
Assay type: cell-based
Conditions: Homo sapiens
Text: DLBCL cells of the ABC subtype, such as OCI-Ly10, have chronic active BCR signaling and are very sensitive to the Btk inhibitor described herein. […] In addition, induction of apoptosis, as shown by capsase activation, Annexin-V flow cytometry and increase in sub-GO fraction is observed in OCILy 10. Both sensitive and resistant cells express Btk at similar levels, and the active site of Btk is fully occupied by the inhibitor in both as shown using a fluorescently labeled affinity probe. […] The activity of Btk inhibitors in the cell lines studied herein are also characterized by comparing signal transduction profiles (Btk, PLCγ, ERK, NF-kB, AKT), cytokine secretion profiles and mRNA expression profiles, both with and without BCR stimulation, and observed significant differences in these profiles that lead to clinical biomarkers that identify the most sensitive patient populations to Btk inhibitor treatment. See U.S. Pat. No. 7,711,492 and Staudt et al., Nature, Vol. 463, Jan. 7, 2010, pp. 88-92, the contents of which are incorporated by reference in their entirety.

- EC50 (read-out: EC50 1 hour pulse, growth of OCI-Ly10, 1 hour pulse): 50 nM
- EC50 (growth of OCI-Ly10, continuous exposure, read-out: EC50 continuous exposure): 10 nM
SMILES: C=CC(=O)N1CCC[C@@H](n2nc(-c3ccc(Oc4ccccc4)cc3)c3c(N)ncnc32)C1 [Compound 1, 1-((R)-3-(4-amino-3-(4-phenoxyphenyl)-1H-pyrazolo[3,4-d]pyrimidin-1-yl)piperidin-1-yl)prop-2-en-1-one]
